Measured values reported in patent US8293769B2, “CSF-1R inhibitors, compositions, and methods of use” (Novartis AG, priority 2008, dated 2012).

Experiments:
[1] = target: T1, cKIT (Homo sapiens, UniProt P10721); experiment: cKIT kinase in vitro biochemical assay (alphascreen); conditions: tested at about 1 μM; read-out: CKIT percent inhibition
T1 construct: The kinase domain of cKIT was assayed in 50 mM Hepes; purchased Upstate 14-559
Protocol: (§1) The IC50 values for the inhibition of RTKs were determined in the alphascreen format measuring the inhibition by compound of phosphate transfer to a substrate by the respective enzyme. Briefly, the respective RTK domain purchased as human recombinant protein (cKIT Upstate #14-559, PDGFRb Invitrogen #P3082) were incubated with serial dilutions of compound in the presence of substrate and ATP concentrations within 3 times the Km of the enzyme.
(§2) The kinase domain of cKIT was assayed in 50 mM Hepes, pH=7.5, 5 mM MgCl2, 10 mM MnCl2, 1 mM DTT, 0.1% BSA with 0.06 uM biotinylated peptide substrate (GGLFDDPSYVNVQNL-NH2) and 15 uM ATP (ATP KM apparent=15 uM). The kinase domain of PDGFRβ was assayed in 50 mM Hepes, pH=7.5, 20 mM MgCl2, 1 mM DTT, 0.1% BSA with 0.1 uM biotinylated peptide substrate (GGLFDDPSYVNVQNL-NH2) and 10 uM ATP (ATP KM apparent=25 uM). Reactions were incubated at room temperature for 3 to 4 hr and stopped with buffer (20 mM EDTA, 0.01% Tween-20 for both PDGFRb and cKIT). Alphascreen PY20 beads were added to the stopped cKIT reactions and PY20 Ab/Protein A Alphascreen beads were added to the PDGFRβ stopped reactions. Both reactions were incubated overnight and read on the Alphascreen reader. The concentration of compound for 50% inhibition (IC50) was calculated employing non-linear regression using XL-Fit data analysis software. As a control compound, staurosporine is run in every assay and a Z′>0.5 is required to validate results.

[2] = target: T2, PDGFRb (Homo sapiens, UniProt P09619); experiment: PDGFRb kinase in vitro biochemical assay (alphascreen); conditions: tested at about 1 μM; read-out: PDGF RK BETA percent inhibition
T2 construct: The kinase domain of PDGFRβ was assayed in 50 mM Hepes; purchased Invitrogen P3082
T2 sequence (P09619 600-962 limits assumed): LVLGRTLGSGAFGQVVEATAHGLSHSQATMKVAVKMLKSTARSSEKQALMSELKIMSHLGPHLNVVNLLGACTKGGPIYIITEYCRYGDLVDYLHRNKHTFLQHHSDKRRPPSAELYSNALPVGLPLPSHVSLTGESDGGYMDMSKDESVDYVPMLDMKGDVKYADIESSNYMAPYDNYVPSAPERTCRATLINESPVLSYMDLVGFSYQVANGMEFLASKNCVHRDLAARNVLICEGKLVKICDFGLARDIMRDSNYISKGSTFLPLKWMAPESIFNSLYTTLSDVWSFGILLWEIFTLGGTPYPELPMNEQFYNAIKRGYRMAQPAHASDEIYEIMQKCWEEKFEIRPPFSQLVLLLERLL
Protocol: as §1, §2

[3] = target: T3, cytoplasmic domain of the human CSF-1R (Homo sapiens, UniProt P07333); experiment: In vitro kinase assay for CSF-1R (AlphaScreen); format: biochemical; conditions: tested at about 1 μM; read-out: CSF1RK 1 percent inhibition
T3 construct: Recombinant protein corresponding to the cytoplasmic domain of the human CSF-1R; purchased Invitrogen Corporation, Carlsbad, Calif; PV3249
T3 sequence (P07333 539-972 limits assumed): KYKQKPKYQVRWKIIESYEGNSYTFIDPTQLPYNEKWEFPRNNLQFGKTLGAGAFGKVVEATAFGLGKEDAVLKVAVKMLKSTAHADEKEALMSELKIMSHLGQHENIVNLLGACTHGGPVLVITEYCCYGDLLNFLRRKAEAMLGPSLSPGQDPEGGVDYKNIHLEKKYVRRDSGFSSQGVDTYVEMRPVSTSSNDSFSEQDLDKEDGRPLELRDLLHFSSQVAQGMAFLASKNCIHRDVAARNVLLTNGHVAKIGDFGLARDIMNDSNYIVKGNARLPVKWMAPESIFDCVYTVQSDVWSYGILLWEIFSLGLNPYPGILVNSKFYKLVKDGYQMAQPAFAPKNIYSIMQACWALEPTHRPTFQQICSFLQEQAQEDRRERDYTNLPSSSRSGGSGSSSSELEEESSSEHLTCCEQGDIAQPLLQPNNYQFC
Protocol: The kinase activity of various protein tyrosine kinases can be measured by providing ATP and a suitable peptide or protein tyrosine-containing substrate, and assaying the transfer of phosphate moiety to the tyrosine residue. Recombinant protein corresponding to the cytoplasmic domain of the human CSF-1R was purchased from Invitrogen Corporation, Carlsbad, Calif. U.S.A. (#PV3249). For each assay, test compounds were serially diluted, starting at 25 μM with 3 fold dilutions, in DMSO in 384 well plates then mixed with an appropriate kinase reaction buffer consisting of 50 mM Hepes, 5 mM MgCl2, 10 mM MnCl2, 0.1% BSA, pH 7.5, 1.0 mM dithiothreitol, 0.01% Tween 80 plus 1 μM ATP. Kinase protein and an appropriate biotinylated peptide substrate at 50 nM were added to give a final volume of 20 μL, reactions were incubated for 2 hours at room temperature and stopped by the addition of 10 μL of 45 mM EDTA, 50 mM Hepes pH 7.5. Added to the stopped reaction mix was 30 μL of PT66 Alphascreen beads (Perkin Elmer, Boston, Mass., U.S.A.). The reaction was incubated overnight and read on the Envision (Perkin Elmer). Phosphorylated peptide product was measured with the AlphaScreen system (Perkin Elmer) using acceptor beads coated with anti-phosphotyrosine antibody PT66 and donor beads coated with streptavidin that emit a fluorescent signal at the 520-620 nm emission wave length if in close proximity. The concentration of each compound for 50% inhibition (IC50) was calculated by non-linear regression using XL Fit data analysis software.
CSF-1R kinase was assayed in 50 mM Hepes pH 7.0, 5 mM MgCl2, 10 mM MnCl2, 1 mM DTT, 1 mg/mL BSA, 1.0 μM ATP, and 0.05 μM biotin-GGGGRPRAATF-NH2 (SEQ ID NO:1) peptide substrate. CSF-1R kinase was added at final concentration of 4 nM.

T1 sequence (P10721 589-937 limits assumed): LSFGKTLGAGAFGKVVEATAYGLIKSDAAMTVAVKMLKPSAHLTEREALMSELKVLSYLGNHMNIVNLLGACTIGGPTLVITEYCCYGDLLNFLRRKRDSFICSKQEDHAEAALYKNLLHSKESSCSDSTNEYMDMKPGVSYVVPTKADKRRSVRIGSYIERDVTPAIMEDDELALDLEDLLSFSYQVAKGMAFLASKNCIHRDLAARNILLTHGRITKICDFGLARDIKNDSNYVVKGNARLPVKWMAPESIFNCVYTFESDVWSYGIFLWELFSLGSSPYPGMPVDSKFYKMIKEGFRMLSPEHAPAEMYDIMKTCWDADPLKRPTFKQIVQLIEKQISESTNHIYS

Clc1cc(Oc2ccc3nc(NCC4CCCCC4)sc3c2)ncn1 [Compound 2, 6-(6-chloropyrimidin-4-yloxy)-N-(cyclohexylmethyl)benzo[d]thiazol-2-amine]
inhibition at 1 µM [1]: 11% | inhibition at 1 µM [2]: 6% | inhibition at 1 µM [3]: 78%

Nc1cc(Oc2ccc3nc(NCC4CCCCC4)sc3c2)nc(N)n1 [Compound 3, 6-(2-(cyclohexylmethylamino)benzo [d]thiazol-6-yloxy) pyrimidine-2,4-diamine]
inhibition at 1 µM [1]: 23% | inhibition at 1 µM [2]: 0% | inhibition at 1 µM [3]: 19%

Clc1nccc(Oc2ccc3nc(NCC4CCCCC4)sc3c2)n1 [Compound 4, 6-(2-chloropyrimidin-4-yloxy)-N-(cyclohexylmethyl) benzo[d]thiazol-2-amine]
inhibition at 1 µM [1]: 23% | inhibition at 1 µM [2]: 0% | inhibition at 1 µM [3]: 73%

O[C@@H]1CCCC[C@H]1Nc1nc2ccc(Oc3cc(Cl)ncn3)cc2s1 [Compound 5, (1R,2R)-2-(6-(6-chloropyrimidin-4-yloxy)benzo[d]thiazol-2-ylamino) cyclohexanol]
inhibition at 1 µM [1]: 25% | inhibition at 1 µM [2]: 0% | inhibition at 1 µM [3]: 41%

O[C@@H]1CCCC[C@H]1Nc1nc2ccc(Oc3ccnc(Cl)n3)cc2s1 [Compound 6, (1R,2R)-2-(6-(2-chloropyrimidin-4-yloxy)benzo[d]thiazol-2-ylamino) cyclohexanol]
inhibition at 1 µM [1]: 19% | inhibition at 1 µM [2]: 0% | inhibition at 1 µM [3]: 18%

c1nc(Oc2ccc3nc(NCC4CCCCC4)sc3c2)cc(N2CCOCC2)n1 [Compound 11, N-(cyclohexylmethyl)-6-(6-morpholinopyrimidin-4-yloxy)benzo[d]thiazol-2-amine]
inhibition at 1 µM [1]: 19% | inhibition at 1 µM [2]: 13% | inhibition at 1 µM [3]: 68%

CC(=O)NCCNc1cc(Oc2ccc3nc(NCC4CCCCC4)sc3c2)ncn1 [Compound 12, N-(2-(6-(2-(cyclohexylmethylamino)benzo[d]thiazol-6-yloxy)pyrimidin-4-ylamino)ethyl) acetamide]
inhibition at 1 µM [1]: 13% | inhibition at 1 µM [2]: 37% | inhibition at 1 µM [3]: 80%

CC(=O)NCCNc1cc(Oc2ccc3nc(NCC4CCCCC4)sc3c2)nc(N)n1 [Compound 14, N-(2-(2-amino-6-(2-(cyclohexyl-methylamino)benzo[d]thiazol-6-yloxy)pyrimidin-4-ylamino)ethyl)acetamide]
inhibition at 1 µM [1]: 23% | inhibition at 1 µM [2]: 0% | inhibition at 1 µM [3]: 26%

c1cc(Oc2ccc3nc(NCC4CCCCC4)sc3c2)nc(N2CCOCC2)n1 [Compound 15, N-(cyclohexylmethyl)-6-(2-morpholinopyrimidin-4-yloxy)benzo[d]thiazol-2-amine]
inhibition at 1 µM [1]: 26% | inhibition at 1 µM [2]: 16% | inhibition at 1 µM [3]: 94%

CC(=O)NCCNc1nccc(Oc2ccc3nc(NCC4CCCCC4)sc3c2)n1 [Compound 16, N-(2-(4-(2-(cyclohexylmethylamino)benzo[d]thiazol-6-yloxy)pyrimidin-2-ylamino)ethyl) acetamide]
inhibition at 1 µM [1]: 22% | inhibition at 1 µM [2]: 35% | inhibition at 1 µM [3]: 89%

C[C@H](Nc1nc2ccc(Oc3cc(Cl)ncn3)cc2s1)C1CCCCC1 [Compound 35, (S)-6-(6-chloropyrimidin-4-yloxy)-N-(1-cyclohexylethyl) benzo[d]thiazol-2-amine]
inhibition at 1 µM [1]: 20% | inhibition at 1 µM [2]: 2% | inhibition at 1 µM [3]: 79%

C[C@H](Nc1nc2ccc(Oc3ccnc(Cl)n3)cc2s1)C1CCCCC1 [Compound 36, (S)-6-(2-chloropyrimidin-4-yloxy)-N-(1-cyclohexylethyl)benzo[d]thiazol-2-amine]
inhibition at 1 µM [1]: 19% | inhibition at 1 µM [2]: 0% | inhibition at 1 µM [3]: 59%

c1nc(Oc2ccc3nc(NCC4CCCCC4)sc3c2)c2sccc2n1 [Compound 38, N-(cyclohexylmethyl)-6-(thieno[3,2-d]pyrimidin-4-yloxy) benzo[d]thiazol-2-amine]
inhibition at 1 µM [1]: 99% | inhibition at 1 µM [2]: 83% | inhibition at 1 µM [3]: 100%

C[C@H](Nc1nc2ccc(Oc3cc(-n4cncn4)ccn3)cc2s1)C1CCCCC1 [Compound 39, (S)-6-(4-(1H-1,2,4-triazol-1-yl)pyridin-2-yloxy)-N-(1-cyclohexylethyl) benzo[d]thiazol-2-amine]
inhibition at 1 µM [1]: 33% | inhibition at 1 µM [2]: 0% | inhibition at 1 µM [3]: 27%

C[C@H](Nc1nc2ccc(Oc3cncc(-n4cncn4)n3)cc2s1)C1CCCCC1 [Compound 40, (S)-6-(6-(1H-1,2,4-triazol-1-yl)pyrazin-2-yloxy)-N-(1-cyclobexylethyl)benzo[d]thiazol-2-amine]
inhibition at 1 µM [1]: 32% | inhibition at 1 µM [2]: 17% | inhibition at 1 µM [3]: 68%

O[C@@H]1CCCC[C@H]1Nc1nc2ccc(Oc3cncc(-n4cncn4)n3)cc2s1 [Compound 42, (1R,2R)-2-(6-(6-(1H-1,2,4-triazol-1-yl)pyrazin-2-yloxy)benzo[d]thiazol-2-ylamino)cyclohexanol]
inhibition at 1 µM [1]: 9% | inhibition at 1 µM [2]: 10% | inhibition at 1 µM [3]: 51%

O[C@@H]1CCCC[C@H]1Nc1nc2ccc(Oc3cc(-n4cncn4)ncn3)cc2s1 [Compound 43, (1R,2R)-2-(6-(6-(1H-1,2,4-triazol-1-yl)pyrimidin-4-yloxy)benzo[d]thiazol-2-ylamino)cyclohexanol]
inhibition at 1 µM [1]: 15% | inhibition at 1 µM [2]: 14% | inhibition at 1 µM [3]: 57%

CNC(=O)c1ccncc1Oc1ccc2nc(NCC3CCCCC3)sc2c1 [Compound 49, 3-(2-(cyclohexylmethylamino)benzo[d]thiazol-6-yloxy)-N-methylisonicotinamide]
inhibition at 1 µM [1]: 32% | inhibition at 1 µM [2]: 6% | inhibition at 1 µM [3]: 95%

CNC(=O)c1cncc(Oc2ccc3nc(NCC4CCCCC4)sc3c2)n1 [Compound 50, 6-(2-(cyclohexylmethylamino)benzo [d]thiazol-6-yloxy)-N-methylpyrazine-2-carboxamide]
inhibition at 1 µM [1]: 32% | inhibition at 1 µM [2]: 11% | inhibition at 1 µM [3]: 98%

CNC(=O)c1cncc(Oc2ccc3nc(N[C@@H]4CCCC[C@H]4O)sc3c2)n1 [Compound 52, 6-(2-((1R,2R)-2-hydroxycyclohexylamino)benzo[d]thiazol-6-yloxy)-N-methylpyrazine-2-carboxamide]
inhibition at 1 µM [1]: 33% | inhibition at 1 µM [2]: 12% | inhibition at 1 µM [3]: 78%

CNC(=O)c1ccc(Oc2ccc3nc(N[C@@H]4CCCC[C@H]4O)sc3c2)cn1 [Compound 54, 5-(2-((1R,2R)-2-hydroxycyclohexylamino)benzo[d]thiazol-6-yloxy)-N-methylpicolinamide]
inhibition at 1 µM [1]: 56% | inhibition at 1 µM [2]: 13% | inhibition at 1 µM [3]: 87%
